Measured values from paper PMC5363247 (Angewandte Chemie (International Ed. in English), 2017).

Tests used:
factor Xa [1] = molecular target: T1, factor Xa (Homo sapiens, UniProt P00742); test: factor Xa enzyme activity; format: biochemical; conditions: initial rates, Michaelis-Menten fit
factor Xa [2] = molecular target: T1, factor Xa; test: fragment ligation assay, detection via biochemical assay; conditions: read-out: inhibition of factor Xa

T1 sequence (P00742 235-488 limits assumed): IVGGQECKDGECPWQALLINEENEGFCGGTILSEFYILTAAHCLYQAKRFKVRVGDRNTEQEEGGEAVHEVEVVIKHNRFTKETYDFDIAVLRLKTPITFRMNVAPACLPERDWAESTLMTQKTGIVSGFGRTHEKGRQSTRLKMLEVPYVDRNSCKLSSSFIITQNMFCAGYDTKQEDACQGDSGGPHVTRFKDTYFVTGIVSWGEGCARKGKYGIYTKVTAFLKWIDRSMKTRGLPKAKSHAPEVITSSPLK
T1 sequence (P00742 41-179 partner limits assumed): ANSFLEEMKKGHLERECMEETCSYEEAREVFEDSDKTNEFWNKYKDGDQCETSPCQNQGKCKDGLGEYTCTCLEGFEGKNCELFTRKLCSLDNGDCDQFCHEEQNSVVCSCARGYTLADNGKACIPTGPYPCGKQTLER

| K M of fluorogenic substrate (factor Xa [1]) [µM] | inhibition at 285 µM (factor Xa [2]) [%] | Compound |
| --- | --- | --- |
| 76 |  | 7‐(N‐Boc‐leucinyl‐glycinyl‐arginyl)‐7‐amino‐4‐methylcoumarin |
|  | 20 | N=C(N)c1ccc(CN)cc1 [compound 14, 4‐Aminomethylbenzamidine] |
